Several values for one entry are separate records, joined by “and”; a condition that tells them apart may be missing. Identical values can stand only once. Like-named read-outs stand apart in the source and are kept apart here. Each block holds one compound with its values, some of them ahead of it.
Legend:
[1] = ~4 months at ambient conditions
[2] = potassium laurate solubility in various solvents (solvent added dropwise under sonication); assay type: physicochemical; conditions: thermodynamic from solid
Method: In order to select the reaction solvents and their optimized volumes, the solubility of potassium laurate in various solvents was checked by adding solvent to dissolve the solids under sonication. A vial was charged with potassium laurate (˜100 mg) and then solvent was added dropwise under sonication. The potassium laurate could not be dissolved with most solvents (200 vol.).

- HPLC Results Glycopyrronium (Expt. 1A: Me-THF Solution at RT over weekend): 87.72 AUC % and 87.72% AUC %
- HPLC Results Glycopyrronium (Expt. 1B: Me-THF Solution at 50° C. over weekend, Bottom layer): 49.47% AUC %
- HPLC Results Glycopyrronium (Expt. 1B: Me-THF Solution at 50° C. over weekend, Top layer): 57 AUC % and 57.13% AUC %
- HPLC Results Glycopyrronium (Expt. 2A: Me-THF Solution in the presence of Lauric Acid at RT over weekend): 89.44% AUC %
- HPLC Results Glycopyrronium (Expt. 2B: Me-THF Solution in the presence of Lauric Acid at 50° C. over weekend, Bottom layer): 65.60% AUC %
- HPLC Results Glycopyrronium (Expt. 2B: Me-THF Solution in the presence of Lauric Acid at 50° C. over weekend, Top layer): 69.58% AUC %
Compound: C[N+]1(C)CCC(OC(=O)C(O)(c2ccccc2)C2CCCC2)C1 (centres unmarked) [glycopyrronium laurate]

- degradation over time [1]: degradation was observed
Compound: C[N+]1(C)CCC(OC(=O)C(O)(c2ccccc2)C2CCCC2)C1 (centres unmarked) [glycopyrronium stearate]

Compound: CCCCCCCCCCCC(=O)[O-].[K+] [potassium laurate]
- solubility ([2]; organic solvent or mixture, Acetone, 50° C.): < 5000 µg/mL
- solubility ([2]; organic solvent or mixture, Acetone, room temperature, read-out: potassium laurate solubility At Room Temperature): < 5000 µg/mL
- solubility ([2]; organic solvent or mixture, Butyl Acetate, 50° C.): < 5000 µg/mL
- solubility ([2]; organic solvent or mixture, Butyl Acetate, room temperature, read-out: potassium laurate solubility At Room Temperature): < 5000 µg/mL
- solubility ([2]; organic solvent or mixture, Ethanol, room temperature, read-out: potassium laurate solubility At Room Temperature): ~14000 µg/mL
- solubility ([2]; organic solvent or mixture, Ethyl Acetate, 50° C.): < 5000 µg/mL
- solubility ([2]; organic solvent or mixture, Ethyl Acetate, room temperature, read-out: potassium laurate solubility At Room Temperature): < 5000 µg/mL
- solubility ([2]; organic solvent or mixture, IPA, 50° C.): < 5000 µg/mL
- solubility ([2]; organic solvent or mixture, IPA, room temperature, read-out: potassium laurate solubility At Room Temperature): < 5000 µg/mL
- solubility ([2]; organic solvent or mixture, Isopropyl Acetate, 50° C.): < 5000 µg/mL
- solubility ([2]; organic solvent or mixture, Isopropyl Acetate, room temperature, read-out: potassium laurate solubility At Room Temperature): < 5000 µg/mL
- solubility ([2]; organic solvent or mixture, MEK, 50° C.): < 5000 µg/mL
- solubility ([2]; organic solvent or mixture, MEK, room temperature, read-out: potassium laurate solubility At Room Temperature): < 5000 µg/mL
- solubility ([2]; organic solvent or mixture, MIBK, 50° C.): < 5000 µg/mL
- solubility ([2]; organic solvent or mixture, MIBK, room temperature, read-out: potassium laurate solubility At Room Temperature): < 5000 µg/mL
- solubility ([2]; organic solvent or mixture, Methanol, room temperature, read-out: potassium laurate solubility At Room Temperature): ~50000 µg/mL
- solubility ([2]; organic solvent or mixture, Methyl Acetate, 50° C.): < 5000 µg/mL
- solubility ([2]; organic solvent or mixture, Methyl Acetate, room temperature, read-out: potassium laurate solubility At Room Temperature): < 5000 µg/mL
- solubility ([2]; Water, room temperature, read-out: potassium laurate solubility At Room Temperature): ~138000 µg/mL

— US10519109B2, “Glycopyrronium fatty acid salts and methods of making same” (QAAM PHARMACEUTICALS, LLC, priority 2015, dated 2019)
